Read-outs that look alike come from different tables or passages of the source.
How the values were obtained:
[1] = system: Platelet Activating Factor (PAF) induced aggregation of human platelet rich plasma; assay: Inhibition of platelet activating factor (PAF) induced platelet aggregation; type: cell-based; details: human PRP, PAF 1 μM, first phase response
Procedure: Human platelet rich plasma (PRP) and platelet poor plasma (PPP) are prepared from 0.38% sodium citrate treated blood. PRP is obtained by centrifugation at 180×g for 10 minutes and PPP by centrifuging the remaining red cell layer 1000×g for 10 minutes. Aggregation is determined by the turbidometric method of Born which was cited above, and monitored at 37° C. with a Payton dual channel module with stirring speed set at 900 rpm. PRP (0.45 ml) is added to a siliconized cuvette and prewarmed to 37° C. Zero and 100% light transmission are set with PRP and PPP, respectively. PAF (50 μl) is added to the stirring PRP one minute after the addition of 5 μl of the compound to be tested. PRP prepared from citrated human blood will aggregate when stirred in the presence of PAF giving a two phase response. The first phase is caused by PAF and the second phase is caused by the release of arachidonic acid. PAF is used at 1 μM and only the first phase response, about 30% aggregation, is evaluated. The first phase is resistant to indomethacin. 50% inhibition of the 1st phase PAF response is calculated from dose curves and represented as IC50 values. […] Activities of compounds of the invention in this test can be found in Table III below.

[2] = system: Arachidonic Acid (AA) induced aggregation of human platelet rich plasma; assay: Inhibition of arachidonic acid (AA) induced platelet aggregation; type: cell-based; details: 2 min, human PRP, AA 0.3 to 1 mM
Procedure: Human platelet rich plasma (PRP) and platelet poor plasma (PPP) are prepared from 0.38% sodium citrate treated blood. PRP is obtained by centrifugation at 180×g for 10 minutes and PPP by centrifuging the remaining red cell layer 1000×g for 10 minutes. Aggregation is determined by the turbidometric method of Born G.V.R., Nature, 194, 927, (1962), and monitored at 37° C. with a Payton dual channel module with stirring speed set at 900 rpm. PRP (0.45 ml) is added to a siliconized cuvette and prewarmed to 37° C. Zero and 100% light transmission are set with PRP and PPP, respectively. AA (50 μl) is added to the stirring PRP one minute after the addition of 5 μl of the compound to be tested. A threshold dose (0.3 to 1 mM) of AA is chosen which causes maximum aggregation at about 2 minutes. […] Activities of compounds of the invention in this test can be found in Table III below.

Thromboxane Synthase = assay: Thromboxane synthase inhibition (Table III, enzyme source not stated); type: biochemical; details: platelet species not stated, read-out: Thromboxane Synthase Inh. IC50
Procedure: (§1) Rac.-2-amino-N-(2,6-dimethylphenyl)-N-[3-(3-pyridinyl)propyl]propanamide dihydrochloride was tested for its inhibitory effects on thromboxane A2 synthetase (washed rabbit platelet) activity in vitro.
(§2) Therefore, rac.-2-amino-N-(2,6-dimethylphenyl)-N-[3-(3-pyridinyl)propyl]propanamide dihydrochloride is useful in the treatment of ischemic heart disease.

[3] = system: Ouabain-induced ventricular arrhythmia; assay: Effectiveness against ouabain-induced ventricular arrhythmia in anesthetized dogs; type: in vivo, dog; details: for minimal effective dose: Canis lupus familiaris, iv; for minimal effective dose / No. of effective cases/No. of experiments: dog
Procedure: Ventricular arrhythmia in an anesthetized dog was induced by an intravenous administration of ouabain. An initial i.v. dose of 40 μg/kg was administered, then 20 μg/kg i.v. 30 minutes later and then additional 10 μg/kg i.v. every 15 minutes until ventricular arrhythmia developed. […] The test compound, which was rac.-2-amino-N-(2,6-dimethylphenyl)-N-[3-(3-pyridinyl)propyl]propanamide dihydrochloride, dissolved in saline solution, was injected into the femoral vein 10 min. after the development of the arrhythmia. The dose schedule for the test compound was 1, 3 and 10 mg/kg i.v. in this order at 15 minute intervals until the arrhythmia was reversed to sinus rhythm.
Effectiveness against Ouabain-induced
Ventricular Arrhythmia in Dogs
MED: Minimum effective dose was measured by successive injections of 1, 3
and 10 mg/kg into the femoral vein at 15 minuteintervals until
ouabaininduced arrhythmia was reversed to the sinus rhythm.

[4] = system: ventricular arrhythmias induced by 2-stage ligation of the coronary artery; assay: Ventricular arrhythmias induced by 2-stage ligation of the coronary artery (Harris dogs); type: in vivo, dog (mongrel); details: for incidence of ventricular premature contractions and conversion to sinus rhythm: n=5
Procedure: (2) Test for effectiveness against ventricular arrhythmias induced by 2-stage ligation of the coronary artery in dogs (Harris dogs)
Mongrel dogs weighing between 8-14 kg were anesthetized using 30 mg/kg i.v. of sodium pentobarbital. They were artificially ventilated with room air. After thoracotomy via the fourth left intercostal space, the pericardium was opened. The left anterior descending artery was dissected free for a few millimeters near the distal edge of the […] and ligated there in two stages being separated by an interval of 30 minutes. […] Electrograms were monitored continuously throughout the experiment and the number of ventricular and sinus beats (expressed per minute) was counted for 5 minutes every 15 or 30 minutes after p.o. administration of compound and the percentage of ventricular premature beats were calculated.

[5] = biological target: T1, thromboxane A2 synthetase (Oryctolagus cuniculus, UniProt G1TAZ9); assay: Thromboxane A2 synthetase inhibition, washed rabbit platelets, C^14-arachidonic acid substrate; type: biochemical; details: in vitro
T1 construct: Using washed rabbit platelets as the enzyme sources; from tissue; host or cells: washed rabbit platelets
T1 sequence (G1TAZ9 1-530): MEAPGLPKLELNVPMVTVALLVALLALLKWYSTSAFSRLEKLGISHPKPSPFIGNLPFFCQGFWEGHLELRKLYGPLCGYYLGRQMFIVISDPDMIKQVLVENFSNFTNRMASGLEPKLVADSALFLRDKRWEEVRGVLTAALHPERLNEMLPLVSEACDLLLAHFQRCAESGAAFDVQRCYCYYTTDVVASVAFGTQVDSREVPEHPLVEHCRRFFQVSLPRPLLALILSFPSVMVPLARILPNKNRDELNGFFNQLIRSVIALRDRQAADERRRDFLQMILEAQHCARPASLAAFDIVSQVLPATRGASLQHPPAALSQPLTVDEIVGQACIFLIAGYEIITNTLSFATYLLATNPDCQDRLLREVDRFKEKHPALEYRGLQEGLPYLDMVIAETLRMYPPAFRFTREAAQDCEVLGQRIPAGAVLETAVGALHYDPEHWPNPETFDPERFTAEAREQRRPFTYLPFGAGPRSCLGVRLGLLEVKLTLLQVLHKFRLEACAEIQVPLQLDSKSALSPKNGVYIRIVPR
Procedure: as §1, §2

[6] = system: collagen-induced rabbit platelet aggregation; assay: Ex vivo inhibition of collagen-induced rabbit platelet aggregation by plasma of orally treated rats; type: in vivo, rabbit platelets; plasma of treated rats; details: for collagen-induced platelet aggregation, % of control: 4 rats, 1 hour after dosing, collagen 3 μg/ml, control = 100%
Procedure: (4) Ex vivo experiments: Inhibition of rabbit platelet aggregation induced by collagen by the plasma of rats treated with oral rac.-2-amino-N-(2,6-dimethylphenyl)-N-[3-(3-pyridinyl)propyl]propanamide dihydrochloride
The antiplatelet aggregatory activity of rac.-2-amino-N-(2,6-dimethylphenyl)-N-[3-(3-pyridinyl) propyl]propanamide dihydrochloride was observed ex vivo in rats.
control. The control = 100% platelet aggregation.
An aliquot (125 μl) of the platelet free plasma of the rats which had
been orally treated with compound for 1 hour was added to the platelet
rich plasma (125 μl) of the rabbit. Collagen (3 μg/ml) induced
platelet aggregation was measured turbidimetrically.

[7] = biological target: T2, thromboxane A2 synthetase (Homo sapiens, UniProt P24557); assay: Thromboxane A2 synthetase inhibition, human platelets, PG H2 substrate; type: biochemical; details: PG H2 as the substrate, read-out: thromboxane A2 synthetase inhibition IC50 range
T2 construct: thromboxane A2 synthetase activity of human platelets; from tissue; host or cells: human platelets
T2 sequence (P24557 1-533): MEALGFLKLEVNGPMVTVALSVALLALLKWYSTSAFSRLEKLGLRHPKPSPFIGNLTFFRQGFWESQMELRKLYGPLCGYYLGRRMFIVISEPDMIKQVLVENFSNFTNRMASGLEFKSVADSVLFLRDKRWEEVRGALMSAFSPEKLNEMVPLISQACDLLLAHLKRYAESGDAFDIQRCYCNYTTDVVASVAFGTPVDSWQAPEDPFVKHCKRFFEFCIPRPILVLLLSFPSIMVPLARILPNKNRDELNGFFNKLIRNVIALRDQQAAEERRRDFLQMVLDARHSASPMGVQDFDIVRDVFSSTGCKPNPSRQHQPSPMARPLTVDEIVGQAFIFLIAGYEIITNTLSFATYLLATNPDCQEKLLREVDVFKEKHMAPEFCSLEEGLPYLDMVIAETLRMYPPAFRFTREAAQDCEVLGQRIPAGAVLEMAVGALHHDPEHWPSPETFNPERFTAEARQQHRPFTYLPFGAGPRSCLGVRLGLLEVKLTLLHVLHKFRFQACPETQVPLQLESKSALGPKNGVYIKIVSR
Text: as §2

[8] = read-out: Ouabain Induced Arrhythmias MED, Table III

Row | Structure (SMILES) | IC50 [1] [µM] | IC50 [2] [µM] | IC50 (Thromboxane Synthase) [µM] | minimal effective dose [3, 8] [mg/kg] | further results
1 | Cc1cccc(C)c1N(CCCCc1cccnc1)C(=O)C(C)N (centres unmarked) | > 10 | > 10 | 10 to 100 |  | Ouabain Induced Arrhythmias: number converted/number tested ([3]; converted at 3 mg/kg IV): 1/3
2 | Cc1cccc(C)c1N(CCCCCCc1cccnc1)C(=O)C(C)N (centres unmarked) |  |  | 10 to 100 | 8.3 ± 1.8 | 
3 | Cc1cccc(C)c1N(CCCCn1ccnc1)C(=O)C(C)N (centres unmarked) | > 10 | > 10 | ~10 | > 10 | 
4 | Cc1cccc(C)c1N(CCCc1cccnc1)C(=O)Cn1ccnc1 | 1 | > 10 | 0.1 to 1 |  | Ouabain Induced Arrhythmias: number dead/number tested ([3]; dead at 1 mg/kg IV): 1/2
5 | Cc1cccc(C)c1N(CCCc1cccnc1)C(=O)Cn1ccnc1C | > 10 | > 10 | 0.1 to 1 | > 10 | 
6 | Cc1cccc(C)c1N(CCn1ccnc1)C(=O)CCCc1cccnc1 | 0.5 | 0.5 | 0.1 to 1 |  | Ouabain Induced Arrhythmias: number dead/number tested ([3]; dead at 3 mg/kg IV): 1/2
7 | Cc1ccc(N(CCCc2cccnc2)C(=O)C(C)N)cc1 (racemic) [H H CH3, rac.-2-amino-N-(4-methylphenyl)-N-[3-(3-pyridinyl)propyl]propanamide] |  |  | 10 to 100 | > 10 | 
8 | CC(N)C(=O)N(CCCc1cccnc1)c1ccccc1 (racemic) [H H H, rac.-2-amino-N-phenyl-N-[3-(3-pyridinyl)propyl]propanamide] |  |  | 10 to 100 | > 10 | 
9 | Cc1cccc(C)c1N(CCCc1cccnc1)C(=O)C(C)N.Cl.Cl (racemic) [rac.-2-amino-N-(2,6-dimethylphenyl)-N-[3-(3-pyridinyl)propyl]propanamide dihydrochloride] | 20 | 5 | 10 to 100 | 4.4 ± 1.4 | onset of the antiarrhythmic effects ([4]; 30 mg/kg p.o.): approximately 1 hour; time of maximum effect after dosing ([4]; 30 mg/kg p.o.): 5 h; percentage of ventricular premature beats at maximum effect ([4]; 30 mg/kg p.o., 5 hours after dosing, from 94±1.5%, p<0.01): 13±7.9%; incidence of ventricular premature contractions and conversion to sinus rhythm ([4]; 30 mg/kg p.o.): dramatically decreased the incidence of ventricular premature contractions (VPCs) and converted ventricular arrhythmias to sinus rhythm; onset of the antiarrhythmic effects ([4]; 100 mg/kg p.o.): ~2 h; time of maximum effect after dosing ([4]; 100 mg/kg p.o.): 2.5 h; percentage of ventricular premature beats at maximum effect ([4]; 100 mg/kg p.o., 2.5 hours after dosing, from 94±0.5%, p<0.05): 10±9.5%; incidence of ventricular premature contractions and conversion to sinus rhythm ([4]; 100 mg/kg p.o.): dramatically decreased the incidence of ventricular premature contractions (VPCs) and converted ventricular arrhythmias to sinus rhythm; duration of the antiarrhythmic effects after dosing ([4]; 30 and 100 mg/kg p.o.): at least 6 hours; No. of effective cases/No. of experiments ([3]; 1 mg/kg i.v.): 0/4; No. of effective cases/No. of experiments ([3]; 3 mg/kg i.v.): 4/5; No. of effective cases/No. of experiments ([3]; 10 mg/kg i.v.): 1/1; minimal effective dose ([3]; 0.25 h, successive injections of 1, 3 and 10 mg/kg at 15 minute intervals, read-out: MED (minimum effective dose), Table I): 4.4 ± 1.4 mg/kg; IC50 [5]: 38 µM; collagen-induced platelet aggregation, % of control ([6]; 50 mg/kg p.o.): 77.1 ± 11.7 % of control; collagen-induced platelet aggregation, % of control ([6]; 100 mg/kg p.o., p < 0.01): 64.8 ± 6.2 % of control; collagen-induced platelet aggregation, % of control ([6]; 200 mg/kg p.o., p < 0.01): 40.3 ± 14.0 % of control; ED50 ([6]; Rattus norvegicus, Platelet, po, plasma of rats treated orally for 1 hour, read-out: ED50, inhibition of collagen-induced rabbit platelet aggregation (95% confidence limit)): 123 mg/kg; ED50, inhibition of collagen-induced rabbit platelet aggregation (95% confidence limit) ([6]; plasma of rats treated orally for 1 hour, dihydrochloride, 60 min): 123 (85-274) mg/kg p.o.; IC50 [7]: 1 to 10 µM
10 | Cc1cccc(C)c1NC(=O)C(C)N (centres unmarked) [reference compound] | > 100 | > 100 |  | 15.5 ± 3.4 | 
